Assay results from patent US20180002247A1, “METHODS FOR CHIRAL RESOLUTION OF TROLOX” (BIOELECTRON TECHNOLOGY CORPORATION, priority 2014, published 2018).
Values after ≈ are worked out from the molar mass of the structure shown.

Assay: Solubility assessment of (R)-Trolox in 12 solvents at 40° C.
Type: physicochemical
Settings: for solubility: organic solvent or mixture, thermodynamic from solid
Protocol: (R)-Trolox (97.89% ee, chemical purity>99.99% AUC) (100 mg) was weighed out in 12 different vials. 12 different solvents were added (one volume at a time) to the different vials and the mixture was maintained at 40° C. The volume of each solvent required to dissolve 100 mg of (R)-Trolox was recorded and the solubility was subsequently calculated.

Solubility (in words) (all solvents except for pure water): highly soluble | solubility (solvent 2-MeTHF): 524 mg/mL (≈ 2090 mM) | solubility (solvent 5% water/ACN): 459 mg/mL (≈ 1830 mM) | solubility (solvent 5% water/EtOH): 854 mg/mL (≈ 3410 mM) | solubility (solvent 5% water/IPA): 978 mg/mL (≈ 3910 mM) | solubility (solvent 5% water/MeOH): 1040 mg/mL (≈ 4150 mM) | solubility (solvent ACN): 195 mg/mL (≈ 779 mM) | solubility (solvent EtOAc): 209 mg/mL (≈ 835 mM) | solubility (solvent EtOH): 494 mg/mL (≈ 1970 mM) | solubility (solvent IPA): 523 mg/mL (≈ 2090 mM) | solubility (solvent IPAc): 252 mg/mL (≈ 1010 mM) | solubility (solvent MeOH): 1000 mg/mL (≈ 4010 mM) | Solubility at 40° C. (solvent water): not soluble
SMILES: Cc1c(C)c2c(c(C)c1O)CCC(C)(C(=O)O)O2 (racemic) [(R)-Trolox, 6-hydroxy-2,5,7,8-tetramethylchroman-2-carboxylic acid]
